Test [1] concerns the target T1, human CB2 receptor (hCB2R) (Homo sapiens, UniProt P34972).
T1 construct: expressed in transfected cells; membranes
Kind of test: TR-FRET hCB2R binding assay. Background: TR-FRET usually uses a lanthanide donor and a delayed reading to cut background.

The target of test [2] is T2, CB2 receptor (hCB2R), CHO cell line stably overexpressing CB2 receptor (Homo sapiens, UniProt P34972).
T2 construct: expressed in transfected cells; host or cells: CHO cell line stably overexpressing CB2 receptor (G418 selection)
The test is described as follows: cAMP hCB2R functional assay (HTRF). In kind it is cell-based. The following applies: CHO cells overexpressing CB2 receptor, forskolin; for Functionality: normalized to Emax of CP55940 (100%); for EC50: means ± SEM of 2-3 independent experiments. On the procedure:
cAMP hCB2R Functional Assay
The Homogeneous Time Resolved Fluorescence (HTRF) Assays
The homogeneous time-resolved fluorescence (HTRF) cAMP assay was conducted according to the manufacturer's protocol for the cAMP-Gs Dynamic kit (Cisbio). Briefly, the CHO cell line stably overexpressing CB2 receptor were maintained in Ham's F12 supplemented with 10% FBS, 100 U/ml penicillin and 100 μg/ml streptomycin (Gibco-ThermoFisher) and 400 μg/ml G418 (ThermoFisher). For CB2 compounds test, harvest the cells with Cell Dissociation Buffer and re-suspend the cells in F-12 K at 0.4*10^6 cells/mL, and dispense cells into 384-well low volume plates at 2000 cells/5 μL per well. The cells were stimulated with compounds diluted in Stimulation Buffer (2.5 μL/well) for 15 min at room temperature. And then followed by the addition of 2.5 μL 25 μM forsklin. After 15 mins incubation, reactions were stopped by 5 μL/well cAMP-d2 conjugate working solution followed by 5 μL/well of anti-cAMP cryptate working solution. After incubation for 1 h at room temperature, the plates were read in a PerkinElmer Envision reader for time-resolved fluorescence resonance energy transfer detection at 620 nm and 665 nm.
Quantification and Statistical Analysis
All HTRF ratio data sets of test compounds were normalized to the Emax of CP55940 (100%) and obtained the means±standard error of the mean (SEM) of 2-3 independent experiments performed in technical replicates.

For another test, the target named is hCB1R (Homo sapiens, UniProt P21554). Kind of test: hCB1R binding (Kd hCB1R, Table 1).
[3] abbreviates: TR-FRET, membranes of SNAP-tagged human CB2R HEK293-TR cells, 100 μM GppNHp, nonspecific binding with SR144528, read-out: Kd hCB2R.

SMILES strings stand for the structures. Where two headings read alike, the source gives them in different places.

T2 sequence (P34972 whole entry): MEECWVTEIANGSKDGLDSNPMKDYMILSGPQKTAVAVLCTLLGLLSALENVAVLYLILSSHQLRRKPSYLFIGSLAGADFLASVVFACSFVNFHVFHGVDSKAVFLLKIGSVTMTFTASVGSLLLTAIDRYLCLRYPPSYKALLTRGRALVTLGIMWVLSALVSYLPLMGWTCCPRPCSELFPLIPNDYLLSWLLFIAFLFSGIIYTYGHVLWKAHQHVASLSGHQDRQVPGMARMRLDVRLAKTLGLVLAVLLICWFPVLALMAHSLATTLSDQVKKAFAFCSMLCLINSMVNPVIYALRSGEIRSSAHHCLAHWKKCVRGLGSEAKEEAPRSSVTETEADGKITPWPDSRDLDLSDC
T1 sequence (P34972 whole entry): as above
hCB1R, sequence (P21554 whole entry): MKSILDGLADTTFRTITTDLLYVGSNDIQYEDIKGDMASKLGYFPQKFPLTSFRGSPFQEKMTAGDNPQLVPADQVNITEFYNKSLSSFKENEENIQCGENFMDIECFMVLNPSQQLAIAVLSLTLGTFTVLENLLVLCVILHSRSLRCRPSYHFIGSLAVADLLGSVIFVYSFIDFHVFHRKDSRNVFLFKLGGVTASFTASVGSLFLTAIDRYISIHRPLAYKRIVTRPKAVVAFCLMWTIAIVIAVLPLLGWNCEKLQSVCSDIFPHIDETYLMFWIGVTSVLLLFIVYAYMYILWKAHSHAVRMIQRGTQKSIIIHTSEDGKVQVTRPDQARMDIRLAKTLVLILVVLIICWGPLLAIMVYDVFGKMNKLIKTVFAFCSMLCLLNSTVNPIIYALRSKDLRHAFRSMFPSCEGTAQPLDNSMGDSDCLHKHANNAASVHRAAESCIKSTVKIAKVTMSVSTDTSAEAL

Take `CCCCC[C@H](c1ccc(F)cc1)C(C)(C)c1cc(OC)c([C@H]2C=C(CO)[C@H]3C[C@@H]2C3(C)C)c(OC)c1` [Example 9, ((1S,4S,5S)-4-(4-((R)-3-(4-fluorophenyl)-2-methyloctan-2-yl)-2,6-dimethoxyphenyl)-6,6-dimethylbicyclo[3.1.1]hept-2-en-2-yl)methanol]: the Kd was determined as 1150 nM in test [1] (setting [3]) and 1480 nM at hCB1R. Further, the Functionality result in test [2] is on record as “antagonist”.
As to `COc1cc(C(C)(C)[C@H](CCCCCN=[N+]=[N-])c2ccccc2)cc(OC)c1[C@H]1C=C(CNC(=O)CCCCCNC(=O)c2ccc3c(c2)C2(OC3=O)c3ccc(O)cc3Oc3cc(O)ccc32)[C@H]2C[C@@H]1C2(C)C` [Example 26, N-(6-((((1S,4S,5S)-4-(4-((R)-8-azido-2-methyl-3-phenyloctan-2-yl)-2,6-dimethoxyphenyl)-6,6-dimethylbicyclo[3.1.1]hept-2-en-2-yl)methyl)amino)-6-oxohexyl)-3′,6′-dihydroxy-3-oxo-3H-spiro[isobenzofuran-1,9′-xanthene]-6-carboxamide], the results for the Kd (in test [1] (setting [3]); on hCB1R) were 30.3 nM and 1280 nM, respectively.
Regarding `COc1cc(C(C)(C)[C@H](CCCCCN=[N+]=[N-])c2ccccc2)cc(OC)c1[C@H]1C=C(CN)[C@H]2C[C@@H]1C2(C)C` [Example 15, ((1S,4S,5S)-4-(4-((R)-8-azido-2-methyl-3-phenyloctan-2-yl)-2,6-dimethoxyphenyl)-6,6-dimethylbicyclo[3.1.1]hept-2-en-2-yl)methanamine], the Kd in test [1] (setting [3]) was 39.1 nM. Also, in test [2], it took 112 nM to reach a half-maximal effect (EC50) and the Functionality entry is “inverse agonist”.
Taken in the same sequence, the figures for `CCN(CC)c1ccc2cc(/C=C/c3ccc(S(=O)(=O)[O-])c[n+]3CCCCCC(=O)NCC3=C[C@H](c4c(OC)cc(C(C)(C)[C@@H](CCCCCN=[N+]=[N-])c5ccccc5)cc4OC)[C@@H]4C[C@H]3C4(C)C)c(=O)oc2c1` [Example 21, 1-(6-((((1S,4S,5S)-4-(4-((S)-8-azido-2-methyl-3-phenyloctan-2-yl)-2,6-dimethoxyphenyl)-6,6-dimethylbicyclo[3.1.1]hept-2-en-2-yl)methyl)amino)-6-oxohexyl)-6-((E)-2-(7-(diethylamino)-2-oxo-2H-chromen-3-yl)vinyl)pyridin-1-ium-3-sulfonate] were 162 nM, 339 nM and “inverse agonist”.
`COc1cc(C(C)(C)[C@H](CCCCCN=[N+]=[N-])c2ccccc2)cc(OC)c1[C@H]1C=C(CNC(=O)CCCCCNC(=O)c2ccc3c(c2)C(=O)OC32c3ccc(N)c(S(=O)(=O)O)c3Oc3c2ccc(N)c3S(=O)(=O)O)[C@H]2C[C@@H]1C2(C)C` [Example 29, 3′,6′-diamino-5-((6-((((1S,4S,5S)-4-(4-((R)-8-azido-2-methyl-3-phenyloctan-2-yl)-2,6-dimethoxyphenyl)-6,6-dimethylbicyclo[3.1.1]hept-2-en-2-yl)methyl)amino)-6-oxohexyl)carbamoyl)-3-oxo-3H-spiro[isobenzofuran-1,9′-xanthene]-4′,5′-disulfonic acid]: the Kd was 24.9 nM in test [1] (setting [3]) and 3300 nM on hCB1R.
Consider `COc1cc(C(C)(C)[C@H](CCCCCN=[N+]=[N-])c2ccccc2)cc(OC)c1[C@H]1C=C(CNC(=O)CCCCCNC(=O)CCc2ccc3n2[B-](F)(F)[N+]2=C(c4ccc[nH]4)C=CC2=C3)[C@H]2C[C@@H]1C2(C)C` [Example 28, N-(((1S,4S,5S)-4-(4-((R)-8-azido-2-methyl-3-phenyloctan-2-yl)-2,6-dimethoxyphenyl)-6,6-dimethylbicyclo[3.1.1]hept-2-en-2-yl)methyl)-6-(3-(5,5-difluoro-7-(1H-pyrrol-2-yl)-5H-514,614-dipyrrolo[1,2-c:2′,1′-f][1,3,2]diazaborinin-3-yl)propanamido)hexanamide], for which the equilibrium dissociation constant (Kd) in test [1] was 44.7 nM.
Regarding `C#CCCC(=O)NCC1=C[C@H](c2c(OC)cc(C(C)(C)[C@@H](CCCCCN=[N+]=[N-])c3ccccc3)cc2OC)[C@@H]2C[C@H]1C2(C)C` [Example 18, N-(((1S,4S,5S)-4-(4-((S)-8-azido-2-methyl-3-phenyloctan-2-yl)-2,6-dimethoxyphenyl)-6,6-dimethylbicyclo[3.1.1]hept-2-en-2-yl)methyl)pent-4-ynamide], in test [1] (setting [3]), the Kd is 2.1 nM. In test [2], the EC50 is 40.7 nM and the Functionality entry was “inverse agonist”.
For the compound `COc1cc(C(C)(C)[C@H](CCCCCN=[N+]=[N-])c2ccccc2)cc(OC)c1[C@H]1C=C(CNC(=O)CCCCCNC(=O)CCCCC[N+]2=C(/C=C/C=C/C=C3/N(CCCS(=O)(=O)O)c4ccc(S(=O)(=O)O)cc4C3(C)C)C(C)(CCCCS(=O)(=O)O)c3cc(S(=O)(=O)[O-])ccc32)[C@H]2C[C@@H]1C2(C)C` (stereo partly drawn) [Example 27, 1-(6-((6-((((1S,4S,5S)-4-(4-((R)-8-azido-2-methyl-3-phenyloctan-2-yl)-2,6-dimethoxyphenyl)-6,6-dimethylbicyclo[3.1.1]hept-2-en-2-yl)methyl)amino)-6-oxohexyl)amino)-6-oxohexyl)-2-((1E,3E)-5-((E)-3,3-dimethyl-5-sulfo-1-(3-sulfopropyl)indolin-2-ylidene)penta-1,3-dien-1-yl)-3-methyl-3-(4-sulfobutyl)-3H-indol-1-ium-5-sulfonate], the Kd in test [1] (setting [3]) was determined as 25.9 nM; on hCB1R, 7050 nM.
For the compound `CCCCCC(c1ccccc1)C(C)(C)c1cc(OC)c([C@H]2C=C(CNC(=O)CCCCC[n+]3cc(S(=O)(=O)[O-])ccc3/C=C/c3cc4ccc(N(CC)CC)cc4oc3=O)[C@H]3C[C@@H]2C3(C)C)c(OC)c1` (stereo partly drawn) [Example 16, 6-((E)-2-(7-(diethylamino)-2-oxo-2H-chromen-3-yl)vinyl)-1-(6-((((1S,4S,5S)-4-(2,6-dimethoxy-4-(2-methyl-3-phenyloctan-2-yl)phenyl)-6,6-dimethylbicyclo[3.1.1]hept-2-en-2-yl)methyl)amino)-6-oxohexyl)pyridin-1-ium-3-sulfonate], in test [1] (setting [3]), the Kd is 214 nM.
As to `CCN(CC)c1ccc2cc(/C=C/c3ccc(S(=O)(=O)[O-])c[n+]3CCCCCC(=O)NCC3=C[C@H](c4c(OC)cc(C(C)(C)C(CCCCCN=[N+]=[N-])c5ccccc5)cc4OC)[C@@H]4C[C@H]3C4(C)C)c(=O)oc2c1` (stereo partly drawn) [Example 20, 1-(6-((((1S,4S,5S)-4-(4-(8-azido-2-methyl-3-phenyloctan-2-yl)-2,6-dimethoxyphenyl)-6,6-dimethylbicyclo[3.1.1]hept-2-en-2-yl)methyl)amino)-6-oxohexyl)-6-((E)-2-(7-(diethylamino)-2-oxo-2H-chromen-3-yl)vinyl)pyridin-1-ium-3-sulfonate], the Kd in test [1] (setting [3]) was 67.9 nM.
`COc1cc(C(C)(C)[C@H](CCCCCN=[N+]=[N-])c2ccccc2)cc(OC)c1[C@H]1C=C(CNC(=O)CCCCCNC(=O)c2ccc3c(c2)C(=O)OC32c3ccc(N(C)C)cc3Oc3cc(N(C)C)ccc32)[C@H]2C[C@@H]1C2(C)C` [Example 25, N-(6-((((1S,4S,5S)-4-(4-((R)-8-azido-2-methyl-3-phenyloctan-2-yl)-2,6-dimethoxyphenyl)-6,6-dimethylbicyclo[3.1.1]hept-2-en-2-yl)methyl)amino)-6-oxohexyl)-3′,6′-bis(dimethylamino)-3-oxo-3H-spiro[isobenzofuran-1,9′-xanthene]-5-carboxamide]: the Kd in test [1] (setting [3]) is 2.78 nM; on hCB1R, 396 nM.
For `C#CCCC(=O)NCC1=C[C@H](c2c(OC)cc(C(C)(C)[C@H](CCCCCN=[N+]=[N-])c3ccccc3)cc2OC)[C@@H]2C[C@H]1C2(C)C` [Example 19, N-(((1S,4S,5S)-4-(4-((R)-8-azido-2-methyl-3-phenyloctan-2-yl)-2,6-dimethoxyphenyl)-6,6-dimethylbicyclo[3.1.1]hept-2-en-2-yl)methyl)pent-4-ynamide], in test [1] (setting [3]), the Kd is 0.42 nM. Also, in test [2], the EC50 is 33.1 nM and the Functionality entry is given as “inverse agonist”.
Taken in the same sequence, the figures for `COc1cc(C(C)(C)[C@@H](CCCCCN=[N+]=[N-])c2ccccc2)cc(OC)c1[C@H]1C=C(CN)[C@H]2C[C@@H]1C2(C)C` [Example 14, ((1S,4S,5S)-4-(4-((S)-8-azido-2-methyl-3-phenyloctan-2-yl)-2,6-dimethoxyphenyl)-6,6-dimethylbicyclo[3.1.1]hept-2-en-2-yl)methanamine] were 476 nM, 2690 nM and “inverse agonist”.
`COc1cc(C(C)(C)[C@@H](CCCCCN=[N+]=[N-])c2ccccc2)cc(OC)c1[C@H]1C=C(CNC(=O)CCCCCCNc2ccc([N+](=O)[O-])c3nonc23)[C@H]2C[C@@H]1C2(C)C` [Example 23, N-(((1S,4S,5S)-4-(4-((S)-8-azido-2-methyl-3-phenyloctan-2-yl)-2,6-dimethoxyphenyl)-6,6-dimethylbicyclo[3.1.1]hept-2-en-2-yl)methyl)-7-((7-nitrobenzo [c][1,2,5]oxadiazol-4-yl)amino)heptanamide]: the Kd in test [1] (setting [3]) stood at 158 nM. For the same compound, the Functionality entry in test [2] was “Antagonist”.

By Kd is commonly meant the constant that tells how readily two partners part at equilibrium. One may read the EC50 as the concentration needed to bring the measured effect to its halfway point. Higher therefore signals a need for much substance.

Values taken from patent US20260200892A1, “CANNABINOID RECEPTOR 2 MODULATORS” (Hoffmann-La Roche Inc., priority 2023, published 2026).
